Our source for the inhibition values is ChEMBL document CHEMBL5653615 (J Biol Chem, 2013).

In assay [1] the target is RAC-gamma serine/threonine-protein kinase (Homo sapiens) (UniProt Q9Y243). Description: Inhibition of human AKT3 at 18.6 nM by HotSpot assay relative to control.
The target in assay [2] is ALK tyrosine kinase receptor (Homo sapiens) (UniProt Q9UM73). Description: Inhibition of human ALK at 18.6 nM by HotSpot assay relative to control.
Assay [3] has as its target Tyrosine-protein kinase Fgr (Homo sapiens) (UniProt P09769). Description: Inhibition of human FGR at 18.6 nM by HotSpot assay relative to control.
For assay [4], the target named is Ribosomal protein S6 kinase beta-1 (Homo sapiens) (UniProt P23443). Description: Inhibition of human RPS6KB1 at 18.6 nM by HotSpot assay relative to control.
Assay [5] deals with T1, Serine/threonine-protein kinase ULK2 (Homo sapiens) (UniProt Q8IYT8).
T1 sequence (whole entry): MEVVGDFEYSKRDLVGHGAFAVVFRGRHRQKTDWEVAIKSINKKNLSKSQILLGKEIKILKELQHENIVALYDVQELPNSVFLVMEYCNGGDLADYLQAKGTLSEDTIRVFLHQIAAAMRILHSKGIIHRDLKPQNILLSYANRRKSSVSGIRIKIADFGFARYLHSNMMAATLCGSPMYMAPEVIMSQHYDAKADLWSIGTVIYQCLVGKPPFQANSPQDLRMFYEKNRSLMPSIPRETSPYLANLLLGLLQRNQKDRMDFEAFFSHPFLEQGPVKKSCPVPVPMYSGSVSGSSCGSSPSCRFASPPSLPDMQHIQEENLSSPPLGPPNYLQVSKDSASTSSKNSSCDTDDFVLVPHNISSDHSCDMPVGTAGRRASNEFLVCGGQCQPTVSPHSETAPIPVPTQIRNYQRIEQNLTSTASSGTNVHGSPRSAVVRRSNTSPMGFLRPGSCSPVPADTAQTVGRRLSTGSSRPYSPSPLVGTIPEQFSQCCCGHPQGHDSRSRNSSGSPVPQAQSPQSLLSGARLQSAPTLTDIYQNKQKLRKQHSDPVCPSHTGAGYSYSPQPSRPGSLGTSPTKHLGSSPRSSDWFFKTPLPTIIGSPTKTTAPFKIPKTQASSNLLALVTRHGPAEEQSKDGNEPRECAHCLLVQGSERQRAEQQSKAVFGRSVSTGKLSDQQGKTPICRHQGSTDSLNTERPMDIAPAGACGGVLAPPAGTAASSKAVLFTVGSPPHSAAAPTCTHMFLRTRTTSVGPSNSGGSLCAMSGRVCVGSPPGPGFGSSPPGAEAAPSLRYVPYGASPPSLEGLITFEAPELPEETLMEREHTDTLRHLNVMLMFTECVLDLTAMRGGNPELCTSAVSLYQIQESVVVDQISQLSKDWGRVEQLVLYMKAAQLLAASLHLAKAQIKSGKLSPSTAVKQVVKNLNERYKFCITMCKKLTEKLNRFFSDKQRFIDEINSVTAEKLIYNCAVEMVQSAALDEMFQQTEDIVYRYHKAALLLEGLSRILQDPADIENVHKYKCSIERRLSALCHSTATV
Description: Inhibition of human ULK2 at 18.6 nM by HotSpot assay relative to control.

Assay [6] deals with T2, Activin receptor type-1B (Homo sapiens) (UniProt P36896).
T2 sequence (whole entry): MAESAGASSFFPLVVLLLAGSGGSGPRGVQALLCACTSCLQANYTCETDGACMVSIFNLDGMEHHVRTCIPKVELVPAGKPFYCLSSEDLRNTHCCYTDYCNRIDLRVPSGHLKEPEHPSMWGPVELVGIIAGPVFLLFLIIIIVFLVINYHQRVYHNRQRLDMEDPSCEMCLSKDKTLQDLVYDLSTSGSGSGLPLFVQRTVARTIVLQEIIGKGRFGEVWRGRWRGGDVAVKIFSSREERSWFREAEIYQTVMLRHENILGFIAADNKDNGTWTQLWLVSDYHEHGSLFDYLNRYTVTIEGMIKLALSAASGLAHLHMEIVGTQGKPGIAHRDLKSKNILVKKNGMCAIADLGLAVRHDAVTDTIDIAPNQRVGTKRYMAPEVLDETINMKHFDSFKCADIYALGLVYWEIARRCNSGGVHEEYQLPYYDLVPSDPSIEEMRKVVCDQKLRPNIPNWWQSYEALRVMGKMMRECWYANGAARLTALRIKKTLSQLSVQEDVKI
Description: Inhibition of human ALK4 at 1.82 nM by HotSpot assay relative to control.

The target of assay [7] is Mitogen-activated protein kinase kinase kinase 10 (Homo sapiens) (UniProt Q02779). Description: Inhibition of human MAP3K10 at 1.82 nM by HotSpot assay relative to control.
Assay [8] concerns the target T3, Serine/threonine-protein kinase D1 (Homo sapiens) (UniProt Q15139).
T3 sequence (whole entry): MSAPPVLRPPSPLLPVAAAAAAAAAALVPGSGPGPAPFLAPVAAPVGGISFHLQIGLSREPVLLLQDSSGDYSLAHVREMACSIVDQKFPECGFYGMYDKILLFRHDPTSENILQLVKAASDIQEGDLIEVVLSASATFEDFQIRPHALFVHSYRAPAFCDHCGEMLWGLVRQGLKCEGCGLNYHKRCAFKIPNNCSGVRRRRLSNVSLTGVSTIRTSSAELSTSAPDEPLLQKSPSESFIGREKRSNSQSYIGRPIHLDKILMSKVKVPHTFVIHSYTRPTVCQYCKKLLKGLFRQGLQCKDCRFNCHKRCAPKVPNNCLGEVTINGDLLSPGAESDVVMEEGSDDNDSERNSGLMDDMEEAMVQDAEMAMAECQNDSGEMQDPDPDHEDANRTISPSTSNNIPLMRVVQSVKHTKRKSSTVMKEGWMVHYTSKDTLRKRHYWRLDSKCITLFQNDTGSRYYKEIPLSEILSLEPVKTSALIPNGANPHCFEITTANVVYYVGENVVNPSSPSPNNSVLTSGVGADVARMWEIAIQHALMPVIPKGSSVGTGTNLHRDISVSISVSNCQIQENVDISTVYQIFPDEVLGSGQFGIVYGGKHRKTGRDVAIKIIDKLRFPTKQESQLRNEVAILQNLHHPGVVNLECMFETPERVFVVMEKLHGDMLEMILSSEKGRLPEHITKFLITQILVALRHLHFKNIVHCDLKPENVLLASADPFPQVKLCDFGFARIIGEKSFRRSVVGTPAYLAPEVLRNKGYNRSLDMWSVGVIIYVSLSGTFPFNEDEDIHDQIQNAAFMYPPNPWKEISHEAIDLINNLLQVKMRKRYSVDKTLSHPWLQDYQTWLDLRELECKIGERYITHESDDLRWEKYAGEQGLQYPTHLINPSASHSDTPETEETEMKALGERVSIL
Description: Inhibition of human PRKD1 at 1.82 nM by HotSpot assay relative to control.

Each structure is given as a SMILES string.

Sequence of Ribosomal protein S6 kinase beta-1 (Homo sapiens) (P23443 whole entry, looked up): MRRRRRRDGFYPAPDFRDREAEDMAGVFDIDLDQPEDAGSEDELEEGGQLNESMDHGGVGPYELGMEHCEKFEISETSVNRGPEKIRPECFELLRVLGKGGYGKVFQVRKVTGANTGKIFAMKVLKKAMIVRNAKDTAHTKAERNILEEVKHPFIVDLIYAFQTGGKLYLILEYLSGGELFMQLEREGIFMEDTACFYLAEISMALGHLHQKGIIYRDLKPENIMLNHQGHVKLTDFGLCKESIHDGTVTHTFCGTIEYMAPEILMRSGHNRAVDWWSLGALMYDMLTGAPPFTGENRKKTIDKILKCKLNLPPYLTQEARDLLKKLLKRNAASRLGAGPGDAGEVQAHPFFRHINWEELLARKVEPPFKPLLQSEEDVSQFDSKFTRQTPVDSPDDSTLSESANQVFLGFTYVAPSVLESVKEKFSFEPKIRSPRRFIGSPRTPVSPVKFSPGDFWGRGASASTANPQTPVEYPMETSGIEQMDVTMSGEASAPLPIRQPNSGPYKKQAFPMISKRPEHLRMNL
Sequence of Tyrosine-protein kinase Fgr (Homo sapiens) (P09769 2-529 limits assumed): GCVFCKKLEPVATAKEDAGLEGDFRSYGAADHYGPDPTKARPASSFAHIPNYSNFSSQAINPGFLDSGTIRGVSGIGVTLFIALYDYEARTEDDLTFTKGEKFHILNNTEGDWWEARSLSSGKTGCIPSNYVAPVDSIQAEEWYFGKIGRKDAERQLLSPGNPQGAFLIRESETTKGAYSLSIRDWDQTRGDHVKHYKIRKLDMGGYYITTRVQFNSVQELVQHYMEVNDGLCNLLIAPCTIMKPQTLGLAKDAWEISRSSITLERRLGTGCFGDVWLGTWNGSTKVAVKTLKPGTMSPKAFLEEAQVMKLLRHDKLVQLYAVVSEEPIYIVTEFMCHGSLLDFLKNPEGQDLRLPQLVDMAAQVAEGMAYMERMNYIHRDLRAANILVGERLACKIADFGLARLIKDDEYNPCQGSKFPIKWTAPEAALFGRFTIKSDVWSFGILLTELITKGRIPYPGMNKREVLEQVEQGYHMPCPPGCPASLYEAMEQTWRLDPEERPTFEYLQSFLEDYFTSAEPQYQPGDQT
Sequence of RAC-gamma serine/threonine-protein kinase (Homo sapiens) (Q9Y243 whole entry): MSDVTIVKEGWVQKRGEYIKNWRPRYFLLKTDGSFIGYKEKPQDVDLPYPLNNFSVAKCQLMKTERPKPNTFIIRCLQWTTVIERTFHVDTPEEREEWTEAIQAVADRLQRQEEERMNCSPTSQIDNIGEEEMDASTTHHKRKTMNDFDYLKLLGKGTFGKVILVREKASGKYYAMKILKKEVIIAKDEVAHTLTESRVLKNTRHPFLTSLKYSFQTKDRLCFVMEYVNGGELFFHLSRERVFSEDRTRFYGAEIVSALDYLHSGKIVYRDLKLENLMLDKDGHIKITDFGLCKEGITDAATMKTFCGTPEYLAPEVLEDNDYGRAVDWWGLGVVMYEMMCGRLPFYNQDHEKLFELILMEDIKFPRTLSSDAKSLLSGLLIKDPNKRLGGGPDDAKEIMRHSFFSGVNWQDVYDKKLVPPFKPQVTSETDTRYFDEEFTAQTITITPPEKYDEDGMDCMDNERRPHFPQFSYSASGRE
Sequence of ALK tyrosine kinase receptor (Homo sapiens) (Q9UM73 19-1620 limits assumed): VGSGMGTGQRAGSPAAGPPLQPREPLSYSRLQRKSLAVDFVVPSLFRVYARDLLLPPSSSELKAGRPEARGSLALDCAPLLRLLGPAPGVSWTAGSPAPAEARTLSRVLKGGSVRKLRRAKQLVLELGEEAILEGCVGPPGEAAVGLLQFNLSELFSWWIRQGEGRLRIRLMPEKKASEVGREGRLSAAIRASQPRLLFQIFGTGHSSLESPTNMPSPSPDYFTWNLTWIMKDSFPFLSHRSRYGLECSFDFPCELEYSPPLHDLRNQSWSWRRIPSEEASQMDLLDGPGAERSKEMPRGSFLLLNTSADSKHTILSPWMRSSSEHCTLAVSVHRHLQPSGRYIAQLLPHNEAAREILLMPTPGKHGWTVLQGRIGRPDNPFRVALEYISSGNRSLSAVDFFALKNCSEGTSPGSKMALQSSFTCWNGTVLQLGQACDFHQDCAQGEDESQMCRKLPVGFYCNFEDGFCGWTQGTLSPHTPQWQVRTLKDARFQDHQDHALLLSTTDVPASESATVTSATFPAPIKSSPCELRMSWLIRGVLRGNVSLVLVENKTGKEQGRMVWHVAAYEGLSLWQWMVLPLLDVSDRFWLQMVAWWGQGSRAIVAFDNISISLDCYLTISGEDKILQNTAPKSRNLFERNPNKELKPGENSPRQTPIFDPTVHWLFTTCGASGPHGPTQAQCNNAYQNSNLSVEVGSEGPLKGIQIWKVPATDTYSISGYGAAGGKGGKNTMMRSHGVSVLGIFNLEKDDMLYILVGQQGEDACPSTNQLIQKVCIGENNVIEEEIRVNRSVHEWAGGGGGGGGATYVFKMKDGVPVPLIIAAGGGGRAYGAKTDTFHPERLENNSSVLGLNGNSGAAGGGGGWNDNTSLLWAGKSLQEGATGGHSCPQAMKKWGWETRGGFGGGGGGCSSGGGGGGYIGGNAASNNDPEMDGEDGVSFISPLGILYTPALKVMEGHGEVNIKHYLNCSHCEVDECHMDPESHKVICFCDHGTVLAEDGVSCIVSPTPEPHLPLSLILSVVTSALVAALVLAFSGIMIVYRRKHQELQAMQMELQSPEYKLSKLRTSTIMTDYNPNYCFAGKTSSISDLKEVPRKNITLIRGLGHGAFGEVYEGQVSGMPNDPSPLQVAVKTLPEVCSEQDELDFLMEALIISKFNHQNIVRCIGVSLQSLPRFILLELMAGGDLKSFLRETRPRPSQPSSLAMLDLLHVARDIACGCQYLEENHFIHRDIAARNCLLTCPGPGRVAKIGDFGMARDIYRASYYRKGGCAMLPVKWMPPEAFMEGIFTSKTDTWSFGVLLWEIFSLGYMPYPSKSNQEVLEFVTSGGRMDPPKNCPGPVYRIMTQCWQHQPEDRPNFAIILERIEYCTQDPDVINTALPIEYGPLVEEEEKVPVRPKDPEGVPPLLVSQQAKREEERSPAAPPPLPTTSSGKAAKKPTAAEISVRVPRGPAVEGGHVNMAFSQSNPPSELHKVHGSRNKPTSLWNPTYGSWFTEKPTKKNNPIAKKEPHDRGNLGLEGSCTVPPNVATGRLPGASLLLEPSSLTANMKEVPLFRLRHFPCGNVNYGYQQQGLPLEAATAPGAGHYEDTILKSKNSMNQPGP
Sequence of Mitogen-activated protein kinase kinase kinase 10 (Homo sapiens) (Q02779 whole entry, looked up): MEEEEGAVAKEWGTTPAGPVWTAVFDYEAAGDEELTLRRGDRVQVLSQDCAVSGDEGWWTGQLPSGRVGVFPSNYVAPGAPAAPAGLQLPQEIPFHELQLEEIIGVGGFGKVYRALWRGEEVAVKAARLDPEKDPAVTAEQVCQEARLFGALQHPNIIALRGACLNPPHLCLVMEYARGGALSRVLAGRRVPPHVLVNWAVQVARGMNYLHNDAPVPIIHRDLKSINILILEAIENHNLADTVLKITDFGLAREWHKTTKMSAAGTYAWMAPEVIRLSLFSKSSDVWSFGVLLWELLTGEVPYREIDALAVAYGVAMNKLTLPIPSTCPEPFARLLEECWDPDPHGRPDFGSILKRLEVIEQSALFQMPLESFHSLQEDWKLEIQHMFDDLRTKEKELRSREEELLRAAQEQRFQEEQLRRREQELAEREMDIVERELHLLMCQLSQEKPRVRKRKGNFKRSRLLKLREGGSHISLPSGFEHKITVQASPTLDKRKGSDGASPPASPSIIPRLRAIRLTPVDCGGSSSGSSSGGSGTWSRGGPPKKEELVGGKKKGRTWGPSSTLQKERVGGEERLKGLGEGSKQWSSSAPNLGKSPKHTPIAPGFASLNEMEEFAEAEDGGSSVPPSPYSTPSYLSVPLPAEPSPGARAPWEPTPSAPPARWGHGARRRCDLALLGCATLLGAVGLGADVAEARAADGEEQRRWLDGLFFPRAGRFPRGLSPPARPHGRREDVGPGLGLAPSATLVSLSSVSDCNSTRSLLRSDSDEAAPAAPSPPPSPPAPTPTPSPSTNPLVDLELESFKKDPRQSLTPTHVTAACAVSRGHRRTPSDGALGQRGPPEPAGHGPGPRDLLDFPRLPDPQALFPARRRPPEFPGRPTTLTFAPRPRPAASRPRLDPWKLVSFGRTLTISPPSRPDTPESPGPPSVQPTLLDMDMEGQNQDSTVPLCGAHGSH

`C[C@]1(O)C[C@@H](c2nc(-c3ccc4ccc(-c5ccccc5)nc4c3)c3c(N)nccn32)C1`: the inhibition (as a rule, the change of the read-out against control, counted positive when it falls) in assay [1] is -1.08%; in assay [2], -6.1%; in assay [3], -9.34%; in assay [4] it was -4.9%; in assay [5], 2.12%.
For the compound `C[C@@]1(C(=O)Nc2ccc(F)nc2)CCCN1c1nc(Nc2cc(C3CC3)n[nH]2)c2cccn2n1`, the inhibition was 0.66% in assay [6], -1.81% in assay [7] and -5.1% in assay [8].
